The source of these data is PMC10290117, “Molecular mechanism of phosphopeptide neoantigen immunogenicity” (Nature Communications, 2023).

The assay concerns TCR27-AKD10R3 cells. The experiment in a line: X-scan (peptide scan), EGFP reporter effector cells. Type of assay: cell-based, murine. Conditions: Fig. 1c source data, HLA B*07, T2 cells pulsed with 25 μg peptide per 1 × 10^6 cells, 2 h, 37 °C, effector cells 2:1 overnight, mean value of triplicate. As to the method:
Tap-deficient T2 (174x CEM.T2) HLA-B*0702+ cells were received from Dr. Victor Engelhard. These and the commercially purchased Tap-deficient T2 (174 x CEM.T2) cells (ATCC CRL 1991) were maintained in RPMI 1640 (BioConcept) supplemented with 10% fetal calf serum (FCS, HyClone), 2mM L-glutamine and 1% Penicillin/Streptomycin at 37 °C and 5% CO2. The EGFP reporter cell line was based on a murine TCR negative thymoma cell line derived from strain BW5417 (ATCC®TIB-47TM) and was stably transduced with (a) TCR27 in which the human constant regions were replaced with those of mouse, (b) a chimeric mouse/human CD8, and (c) an EGFP reporter construct linked to a minimal IL-2 promoter comprising three NFAT-binding sites (3xNFAT)[44]. The transduced cells were termed TCR27-AKD10R3 cells and will be called the effector cells. Mouse cell lines were cultured in SF-IMDM (BioConcept) supplemented with 3% FCS, 1% Penicillin/Streptomycin, and 50 μM beta-mercaptoethanol at 37 °C and 10% CO2.
Peptides were dissolved in dimethyl sulfoxide (DMSO) at concentrations of 2–20 mg/mL, aliquoted and stored at −80 °C. Peptide-pulsing experiments were performed by pre-incubating T2 cells with 25 μg peptide per 1 × 10^6 cells in PBS for 2 h at 37 °C and 5% CO2, washed three times to remove unbound peptides and used for further downstream analysis. Peptide-pulsed T2 cells were incubated with effector cells in a 2:1 ratio overnight in SF-IMDM at 37 °C and 10% CO2, washed twice and stained with anti-mouse TCR-® chain clone H57-597 (BD Pharmingen #560656, 1:500) for 30 min at RT. Cells were washed twice before FACS-analysis using a BD FACS Canto II with System software v2.0. Data analysis was performed using FlowJo V10 Software. Binding affinity between each peptide and HLA-B*0702 was determined using an Alpha assay. It is a homogenous, proximity-based assay for detection of peptides binding to HLA class I molecules using a conformation-dependent anti-HLA class I antibody, W6/32, as one tag and a biotinylated recombinant HLA class I molecule as the other tag, and a proximity-based signal was generated through the luminescent oxygen channeling immunoassay technology (PerkinElmer) as described.
To identify the off-target peptides we have utilized an approach that was developed previously. In brief, we investigated which amino acids at each position in pMLL747–755 enable TCR interaction by sequentially replacing every amino acid position outside of the anchor positions 2 and 9 with all 19 alternative amino acids, resulting in 134 peptides (133 altered peptides plus original epitope). Each peptide was individually evaluated using cell-based in vitro cytotoxicity assay. To represent the TCR recognition kernel, we have defined Position Weight Matrices (PWMs) for each assay by assigning normalized measurements to each of the 20 amino acids in each position. To predict potential off-target peptides, we applied an algorithm projecting the PWM-defined kernel into the human proteome, scoring TCR27 recognition for the predicted HLA-B^*0702 binding 9-mer peptides. Of the 11 peptides with highest predicted cross-reactivity scores, we confirmed that only 2, […] and pDOT1L998–1006, strongly activated the TCR27-expressing effector T cells.
Take “EPRNPSHSM [single-residue substitution of pMLL747–755, Pos 4]”: the “Percentage GFP positive from TCR+ cells” value is reported as 1.07%.
The same measure for “EPRPPSHSM [single-residue substitution of pMLL747–755, Pos 4]”: 1.21%.
The same measure for “EPRQPSHSM [single-residue substitution of pMLL747–755, Pos 4]”: 1.08%; for “EPRRPSHSM [single-residue substitution of pMLL747–755, Pos 4]”: 0.98%.
The same measure for “EPRTPSHSM [single-residue substitution of pMLL747–755, Pos 4]”: 0.8%; for “EPRVPSHSM [single-residue substitution of pMLL747–755, Pos 4]”: 0.76%; for “EPRWPSHSM [single-residue substitution of pMLL747–755, Pos 4]”: 0.96%.
With “EPRYPSHSM [single-residue substitution of pMLL747–755, Pos 4]”, the “Percentage GFP positive from TCR+ cells” value is given as 0.87%.
The same measure for “EPRsASHSM [single-residue substitution of pMLL747–755, Pos 5]”: 0.92%; for “EPRsCSHSM [single-residue substitution of pMLL747–755, Pos 5]”: 0.98%; for “EPRsDSHSM [single-residue substitution of pMLL747–755, Pos 5]”: 0.95%.
To “EPRsESHSM [single-residue substitution of pMLL747–755, Pos 5]” belongs 0.97%; to “EPRsFSHSM [single-residue substitution of pMLL747–755, Pos 5]”, 0.91%.
The same measure for “EPRsGSHSM [single-residue substitution of pMLL747–755, Pos 5]”: 0.96%; for “EPRsHSHSM [single-residue substitution of pMLL747–755, Pos 5]”: 0.93%; for “EPRsISHSM [single-residue substitution of pMLL747–755, Pos 5]”: 0.81%.
In the case of “EPRsKSHSM [single-residue substitution of pMLL747–755, Pos 5]”, the “Percentage GFP positive from TCR+ cells” value stood at 0.9%.
To “EPRsLSHSM [single-residue substitution of pMLL747–755, Pos 5]” belongs 0.88%; to “EPRsMSHSM [single-residue substitution of pMLL747–755, Pos 5]”, 0.97%.
The same measure for “EPRsNSHSM [single-residue substitution of pMLL747–755, Pos 5]”: 0.84%; for “EPRsPAHSM [single-residue substitution of pMLL747–755, Pos 6]”: 1.34%; for “EPRsPCHSM [single-residue substitution of pMLL747–755, Pos 6]”: 8.54%.
To “EPRsPDHSM [single-residue substitution of pMLL747–755, Pos 6]” belongs 1.07%; to “EPRsPEHSM [single-residue substitution of pMLL747–755, Pos 6]”, 4.34%.
Turning to “EPRsPFHSM [single-residue substitution of pMLL747–755, Pos 6]”, the “Percentage GFP positive from TCR+ cells” value is recorded as 0.82%.
To “EPRsPGHSM [single-residue substitution of pMLL747–755, Pos 6]” belongs 1.34%.
To “EPRsPHHSM [single-residue substitution of pMLL747–755, Pos 6]” belongs 2.09%; to “EPRsPIHSM [single-residue substitution of pMLL747–755, Pos 6]”, 0.85%.
For “EPRsPKHSM [single-residue substitution of pMLL747–755, Pos 6]”, the “Percentage GFP positive from TCR+ cells” value amounted to 0.87%.
The same measure for “EPRsPLHSM [single-residue substitution of pMLL747–755, Pos 6]”: 0.96%.
For the substance “EPRsPMHSM [single-residue substitution of pMLL747–755, Pos 6]”, the “Percentage GFP positive from TCR+ cells” value amounted to 0.73%.
On to “EPRsPNHSM [single-residue substitution of pMLL747–755, Pos 6]”, for which the “Percentage GFP positive from TCR+ cells” value is 12.1%.
The same measure for “EPRsPPHSM [single-residue substitution of pMLL747–755, Pos 6]”: 0.96%; for “EPRsPQHSM [single-residue substitution of pMLL747–755, Pos 6]”: 0.89%; for “EPRsPRHSM [single-residue substitution of pMLL747–755, Pos 6]”: 0.98%.
As to “EPRsPSASM [single-residue substitution of pMLL747–755, Pos 7]”, the “Percentage GFP positive from TCR+ cells” value turned out to be 0.88%.
The same measure for “EPRsPSCSM [single-residue substitution of pMLL747–755, Pos 7]”: 0.97%; for “EPRsPSDSM [single-residue substitution of pMLL747–755, Pos 7]”: 0.72%; for “EPRsPSESM [single-residue substitution of pMLL747–755, Pos 7]”: 1.15%.
The same measure for “EPRsPSFSM [single-residue substitution of pMLL747–755, Pos 7]”: 0.97%; for “EPRsPSGSM [single-residue substitution of pMLL747–755, Pos 7]”: 0.85%; for “EPRsPSHAM [single-residue substitution of pMLL747–755, Pos 8]”: 8.72%.
To “EPRsPSHCM [single-residue substitution of pMLL747–755, Pos 8]” belongs 4.53%; to “EPRsPSHDM [single-residue substitution of pMLL747–755, Pos 8]”, 5.87%; to “EPRsPSHEM [single-residue substitution of pMLL747–755, Pos 8]”, 8.26%.
For “EPRsPSHFM [single-residue substitution of pMLL747–755, Pos 8]”, the “Percentage GFP positive from TCR+ cells” value is listed as 1.28%.
In the case of “EPRsPSHGM [single-residue substitution of pMLL747–755, Pos 8]”, the “Percentage GFP positive from TCR+ cells” value amounted to 1.39%.
The same measure for “EPRsPSHHM [single-residue substitution of pMLL747–755, Pos 8]”: 3.9%; for “EPRsPSHIM [single-residue substitution of pMLL747–755, Pos 8]”: 3.8%; for “EPRsPSHKM [single-residue substitution of pMLL747–755, Pos 8]”: 2.14%.
The same measure for “EPRsPSHLM [single-residue substitution of pMLL747–755, Pos 8]”: 6.68%.
The same measure for “EPRsPSHMM [single-residue substitution of pMLL747–755, Pos 8]”: 5.43%; for “EPRsPSHNM [single-residue substitution of pMLL747–755, Pos 8]”: 2.91%; for “EPRsPSHPM [single-residue substitution of pMLL747–755, Pos 8]”: 2.91%.
